Each structure is given as a SMILES string.

The subject of one data set is neural stem cells. The data set can be described thus: In vitro differentiation assay on adult neuronal stem cells (beta-III-tubulin promoter dual luciferase reporter). The class given is cell-based, Wistar rats. The text has this: The neuroregenerative effect of the compounds according to the present invention can be assayed in vitro by measuring their stimulation of the differentiation of neuronal stem cells. Therefore, adult neuronal stem cells have to be isolated and subsequently cultivated in a suitable culture medium. After several passages in vitro the stem cells have to be co-transfected with a DNA construct coding for two discriminable reporter proteins one of them under the control of a constitutive promoter and the other under the control of a beta-III-tubulin promoter. The beta-III-tubulin promoter is induced during the process of neuronal stem cell differentiation; therefore the reporter protein under the control of this promoter serves as a marker for the stem cell differentiation in such an in vitro dual reporter assay (Schneider et al., J Clin Investigation 2005; 115:2083-2098). The person skilled in the art knows several suitable constitutive promoters such as the SV40-promoter, the TK-promoter, or the CMV-promoter. As discriminable reporter proteins for such a dual reporter assay one can use discriminable luciferases such as firefly luciferase and Renilla luciferase. The transfected cells have to be incubated with the test compound and with positive and negative controls for normalization and background correction. As a positive control compound one can use retinoic acid (Guan et al., Cell Tissue Res. 2001; 305:171-176; Jacobs et al., Proc. Natl. Acad. Sci. USA 2006; 103:3902-3907), a suitable negative control is the sham treatment of the cells. The neroregenerative activity of the test compound is determined as the ratio of the signal of the beta-III-tubulin promoter controlled reporter versus the signal of the constitutively expressed reporter and is expressed as fold from the control. This assay is suitable to assess the neuroregenerative activity of thiabendazole and derivatives thereof, but also can be used to screen for other potential neuroregenerative compounds. Preferably, such a screening can be used to test compounds which are already known to be suitable as a medicament in terms of its toxicology, bioavailability, solubility, stability etc.
In vitro differentiation assay on adult neuronal stem cells with thiabendazole Neural stem cells were isolated from the subventricular zone of 4 week-old male Wistar rats as described (Maurer et al, Proteome Sci. 2003; 1:4). Cells were cultivated in Neurobasal medium (Invitrogen) supplemented with B27 (Invitrogen), 2mM L-glutamine, 100units/ml penicillin, 100units/ml streptomycin, 20ng/ml […] (EGF), 20ng/ml fibroblast growth factor-2 (FGF-2), and 2µg/ml heparin. Once a week the neural stem cells were passaged and experiments were performed after 4 weeks in vitro. For DNA transfection, the cells were dissociated and plated on poly-L-ornithin/laminin-coated 96-well plates at a density of 50.000 cells/well. Cotransfection with the pGL3-p-βIII-tubulin vector (100ng/well) and the pRL SV40 vector (100ng/well) was carried out according to the FuGene6 Transfection protocol (Roche). The pRL SV40 vector (Promega) served as an internal control vector.
To amplify the class III β-tubulin gene promoter (fragment -450 - +54), rat genomic DNA was used as a template for PCR (Dennis et al., Gene 2002;294:269-277). The amplified fragment was inserted into the Mlu I/Xho I site of the pGL3-Basic firefly luciferase reporter vector (Promega) to generate the pGL3-p-βIII-tubulin experimental vector.
After overnight incubation, the plate was decanted and given in 8-fold replicates fresh medium containing thiabendazole (Sigma) or vehicle. As a positive control for in vitro differentiation, stem cells were treated by adding 1 µM retinoic acid (Sigma) to the medium missing the mitogens.
After 48hrs, the cells were harvested to prepare the cellular extracts for luciferase assay following the directions of the manufacturer (Promega). […]

Data set [1] has as its system SH-SY5Y cells. The data set can be described thus: In vitro anti-apoptosis assay (Caspase-Glo 3/7) on SH-SY5Y cells with staurosporine. It counts as cell-based, human. The settings on record: 5h, staurosporine alone = 100 %, sham 10 %. The text has this:
(§1) Neuroprotection is attainable via the inhibition of apoptosis of affected neurons. The anti-apoptotic effect of thiabendazole and its derivatives can be assayed in vitro by measuring the caspase-3 and caspase-7 activities. These members of the cysteine aspartic acid-specific protease (caspase) family play key effector roles in apoptosis in mammalian cells. Cortical neurons have to be isolated and subsequently cultivated in a suitable culture medium. […] Parallel approaches with staurosporine alone and sham treatment of the cells serve as […]. The assay allows evaluating whether the test compound can compensate either completely or partially for the apoptotic effect of staurosporine.
(§2) The neuroprotective effect of compounds can be assayed in vitro by measuring caspase-3 and caspase-7 activities. These members of the cysteine aspartic acid-specific protease (caspase) family play a key effector role in apoptosis in mammalian cells.
The human neuroblastoma cell-line SH-SY5Y (American Type Culture Collection) maintained in DMEM with high glucose supplemented with 20% FBS was used for the apoptosis assay. Alternatively one can analyse the apoptosis of primary cortical neurons which can be isolated from E18 rats and subsequently cultivated in suitable culture medium. 2,5 x 10^4 SH-SY5Y cells were seeded in 96-well plates and stimulated 24 h later with thiabendazole or vehicle in the presence of the apoptosis inducing compound staurosporine (0,1 µM, Calbiochem). After 5h incubation at 37 °C, caspase-Glo 3/7 reagent (Promega) containing luciferase and luminogenic substrate was added to the cells. The cleavage of the substrate by caspase-3 and caspase-7 was detected 30 min later using a luminometer (Berthold Technologies, Mithras LB 940). The Luminescence which is proportional to the amount of caspase activity serves as a measure for the apoptosis of the treated neurons. Thiabendazole was tested in a range from 0,8 µM to 100 µM final concentration.
Incubation with staurosporine (SP; 0,5 µM) alone served as positive control and incubation with vehicle (sham) served as negative control.

The subject of a further data set is primary cortical neurons. The data set can be described thus: In vitro anti-apoptosis assay (Caspase-Glo 3/7) on primary cortical neurons with staurosporine. The class given is cell-based, Wistar rat. The settings on record: compound 1 µM plus staurosporine 0,5 µM, sham 11 %, Fig. 6.
Text: as §1, §2
These cells were isolated from twelve to fourteen cortices dissected from Wistar rat embryos on E18. The tissue was dissociated using 0,25 mg/ml trypsin, 0,1 mg/ml EDTA (Sigma), 100 µg/ml DNase (Roche Diagnostics Corp.) in HBSS. The digestion was stopped using 3 parts MEM-medium containing 10 % fetal calf serum, 0,45 % D-(+)glucose, 1 mM sodium-pyruvate and 0,25 µM glutamate. The cells were singularized by 10 strokes with a burnished Pasteur-pipette. After centrifugation, the cell pellet was dissolved in 10 ml medium and plated at a density of 30000 cells per well on a 96-well plate coated with poly-L-lysine for caspase-assays. […] Incubation with staurosporine (SP; 0,5 µM) alone served as positive control and incubation with vehicle (sham) served as negative control.

Data set [2] deals with SH-SY5Y cells. The data set can be described thus: In vitro anti-apoptosis assay (Caspase-Glo 3/7) on SH-SY5Y cells with staurosporine. The class given is cell-based, human.
For data set [3] the following is noted: mouse; cited from earlier work.

Turning to `c1ccc2[nH]c(-c3cscn3)nc2c1` [thiabendazole, 2-(4-thiazolyl)-benzimidazole], the “differentiation of neural stem cells to neurons (relative induction of the class III β-tubulin gene promoter controlled luciferase signal)” value with neural stem cells (0,2 to 100 µM final concentration, 48hrs, Fig. 1) is “significantly stimulates the differentiation of neural stem cells to neurons”; in the data set on neural stem cells (final concentrations of 1 µM and 10 µM, Fig. 4), “significantly stimulate the differentiation of neural stem cells to neurons”. The “staurosporine induced apoptosis (caspase-3 and caspase-7 activity)” value with SH-SY5Y cells [1] (0,8 µM thiabendazole plus 0,1 µM staurosporine) came to 60%; in the data set with SH-SY5Y cells [1] (25 µM thiabendazole plus 0,1 µM staurosporine), 10%; in the data set on SH-SY5Y cells [1] (50 µM thiabendazole plus 0,1 µM staurosporine) it was 4%; in the data set on SH-SY5Y cells [1] (100 µM thiabendazole plus 0,1 µM staurosporine), 3%; with SH-SY5Y cells [1] (1,6 µM thiabendazole plus 0,1 µM staurosporine), 59%; with SH-SY5Y cells [1] (3,1 µM thiabendazole plus 0,1 µM staurosporine), 44%. For the same compound, the “staurosporine induced apoptosis (caspase-3 and caspase-7 activity)” value turned out to be 28% in the data set on SH-SY5Y cells [1] (6,3 µM thiabendazole plus 0,1 µM staurosporine) and 19% in the data set on SH-SY5Y cells [1] (12,5 µM thiabendazole plus 0,1 µM staurosporine). The “degree of apoptosis relative to the staurosporine control” value was found to be 58% with primary cortical neurons and 68% in the data set on SH-SY5Y cells [2] (SH-SY5Y cells, compound 1 µM plus staurosporine 0,5 µM, sham 26 %, Fig. 5). Moreover, the “apoptotic effect by themselves” value in the data set with SH-SY5Y cells [2] (compound without staurosporine) is listed as “Neither thiabendazole nor derivatives thereof exhibited an apoptotic effect by themselves”. Besides, the “oral LD 50” value in data set [3] is on record as 3,6 g/kg.

Values taken from patent EP2251010A1, “Use of thiabendazole and derivatives thereof for the therapy of neurological conditions” (Sygnis Bioscience GmbH & Co. KG, priority 2009, dated 2010).
